Experimental data reported in publication PMC7093131, “Structural and Biomolecular Analyses of Borrelia burgdorferi BmpD Reveal a Substrate-Binding Protein of an ABC-Type Nucleoside Transporter Family” (Infection and Immunity, 2020).

Target: T1, BmpD (rBmpD; LF-rBmpD) (Borreliella burgdorferi, UniProt P0CL55)
T1 construct: signal peptide (residues 1 to 17) removed; N-terminal hexahistidine tag (pET-30a(+)) kept; E. coli BL21(DE3)pLys; 39 kDa; monomer; printed end 323 may be in mature count
T1 sequence (P0CL55 18-341): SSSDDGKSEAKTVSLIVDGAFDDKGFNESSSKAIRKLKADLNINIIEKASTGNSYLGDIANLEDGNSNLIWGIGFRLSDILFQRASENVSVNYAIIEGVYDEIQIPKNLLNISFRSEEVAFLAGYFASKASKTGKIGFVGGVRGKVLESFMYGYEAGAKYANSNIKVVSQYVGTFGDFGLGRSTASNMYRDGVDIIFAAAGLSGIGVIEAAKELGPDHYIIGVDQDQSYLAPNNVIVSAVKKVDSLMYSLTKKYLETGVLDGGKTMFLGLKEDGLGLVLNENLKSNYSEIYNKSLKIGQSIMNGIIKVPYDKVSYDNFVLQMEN
Assay: X-ray crystal structure ([…] A) with LC-MS of co-purified ligand; label-free MST on refolded LF-rBmpD
Type: binding
Conditions: endogenously bound from E. coli expression, crystals at pH 8.0; MST: 500 nM refolded ligand-free protein, single experiment, no Kd displayed

`Nc1ncnc2c1ncn2[C@@H]1O[C@H](CO)[C@@H](O)[C@H]1O` [adenosine] was tested, and the “X-ray crystal structure (1.43 A) with LC-MS of co-purified ligand; label-free MS” value was “the ligand was a purine nucleoside, which was confirmed to be an adenosine”.
